Assay results from patent US9670213B2, “Pteridine ketone derivative and applications thereof as EGFR, BLK, and FLT3 inhibitor” (EAST CHINA UNIVERSITY OF SCIENCE AND TECHNOLOGY, priority 2012, dated 2017).

Tests used:
BRAF = BRAF (Homo sapiens (Human), UniProt P15056); test: Kinase selectivity analysis (BRAF analysis); type: biochemical; conditions: for inhibition at 1 µM: read-out: % inhibition (1 μM), 1 μM; for inhibition at 10 µM: read-out: % inhibition (10 μM), 10 μM
Experimental: Kinase selectivity analysis: kinase selectivity experiment was performed by Shanghai ChemPartner using Caliper assay screening platform. All of kinases and other materials were purchased from commercial companies.
1. Preparation of 1× Kinase Buffer: 50 mM HEPES, pH 7.5, 10 mM MgCl2, 1 mM EGTA, 0.01% BRIJ-35.
2. Preparation of compounds for BRAF kinase test: 1) serial dilution of compound and preparation of stock solution plate. The compound was diluted in 100% DMSO to a concentration, which was 100 times of the highest concentration used in reaction, and 100 μL of the compound solution as said above was transferred into wells of 96-well plate. 30 μL of compound solution was transferred into 60 μL of 100% DMSO in the adjacent well, and the above operation was repeated for sequentially diluting the compound. 100 μL of 100% DMSO was added into two blank wells as no-compound and no-enzyme control, the plate was marked as stock solution plate. 2) Preparation of temporary plate. 4 μL of compound solution from the stock solution plate was transferred to another 96-well plate, 96 μL of 1× kinase buffer was added into each well, and the temporary plate was placed on a shaker and shaken for 10 mins for uniformly mixing the compound. 3) Preparation of assay plate. 2.5 μL of solution from each well of the 96-well temporary plate was added into a 384-well plate, and the experiment was independently repeated.
3. Kinase BRAF reaction: 1) Preparation of 2× kinase solution. BRAF solution was prepared in 1× kinase buffer, the concentration of which was 2 times of the final concentration in the test. 5 μL of kinase solution was added into each well of the assay plate (except for control well, into which 5 μL of 1× kinase buffer was added), and the assay plate was shaken. 2) Preparation of 4× substrate solution. Fluorescein-MAP2K1, ATP substrate solution was prepared in 1× kinase buffer, the concentration of which was 4 times of the final concentration in the test. 2.5 μL of substrate solution was added into each well of the assay plate to start the reaction, and the assay plate was shaken. 3) The kinase reaction was conducted by incubating at room temperature for 1 hour.
4. Kinase assay. Test solution was prepared in antibody dilution buffer, the concentration of which was 2 times of the following final concentration: antibody 2 nM, EDTA […]. 10 μL of test solution was added into each well of the assay plate to quench the assay. […]
5. Read data: the data was read on Envision (excitation at 340 nm, emission at 520 nm, […]).
6. […] The rate of RFU […] was calculated and converted into inhibition rate % Inhibition rate %=(maximum−rate of sample)/(maximum−minimum)*100, wherein “maximum” represents DMSO control rate, and “minimum” represents the no-enzyme control rate. […]

[1] = tested on: HCC827 (non-small cell lung cancer cells, EGFR del E746-A750); test: Cell proliferation and growth inhibition analysis; type: cell-based; conditions: Homo sapiens, 72 hours, read-out: Inhibitory activity on cell proliferation (IC50, μM) HCC827
Experimental: (§1) Cell proliferation was evaluated by MTS assay. Cells were exposed to the process conditions for 72 hours, and the number of cells for each cell line used in the experiment was adjusted according to the absorbance value (absorbance value at 490 nm was 1.3-2.2). 6 concentration gradients (0.1 nM-10 μM) were set for the compounds to be tested, with six parallel controls for each concentration.
(§2) H1975, HCC827, A549, BT474, MCF-7, SK-BR-3 cells were cultured in the corresponding medium. Upon recovery, the cells were passaged at least two times and then used in experiments. Cells in Log phase were trypsinized and resuspended in the medium. H1975 (1000 cells per well), BT474 (1500 cells per well), MCF-7 (1500 cells per well), HCC827 (2000 cells per well), SK-BR-3 (2000 cells per well), A549 (2000 cells per well) were seeded into 96-well plates, the volume was 100 μL, and 6 rows and 7 columns were set. The plate was placed in an incubator at 37° C. of 5% carbon dioxide overnight. Compounds were dissolved in DMSO to obtain the concentration of […], and then gradually diluted to obtain the concentration of compound as […], 0.1 μM, 0.01 μM, 0.001 μM, 0.0001 μM. 2 μL of compound solution was added into 998 μL of medium, and the resulting mixture was thoroughly mixed. 100 μL of mixture was added into 96-well plate. […] After the cells were cultured for 68 hours, 20 μL of MTT (5 mg/mL) was added. After 4 hours, the supernatant was discarded and 150 μL of DMSO was added. The resulting system was shaken for 10 minutes, and the plate was read with Synergy HT (Bio TeK) (OD490). The data was calculated by GraphPad Prism version 4.0, and IC50 was obtained by non-linear regression model using dose-response curve.

[2] = tested on: H1975 (non-small cell lung cancer cells, EGFR L858R/T790M); test: Cell proliferation and growth inhibition analysis; type: cell-based; conditions: Homo sapiens, NCI-H1975, 72 hours, read-out: Inhibitory activity on cell proliferation (IC50, μM) H1975
Experimental: as §1, §2

wild-type EGFR = wild-type EGFR (Homo sapiens (Human), UniProt P00533); test: In vitro EGFR kinase activity assay (Z'-Lyte); type: biochemical; conditions: EGFR WT; read-out: Inhibitory activity on EGFR kinase (IC50, nM) WT;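 note: Ten-point dose series from 5.1×10^−11 to 1.0×10^−6 mol/L, kinase reaction 1.5 h at room temperature, then 1 h development cleaving unphosphorylated peptide, phosphopeptide as 100% phosphorylation control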
wild-type EGFR, sequence (P00533 25-1210): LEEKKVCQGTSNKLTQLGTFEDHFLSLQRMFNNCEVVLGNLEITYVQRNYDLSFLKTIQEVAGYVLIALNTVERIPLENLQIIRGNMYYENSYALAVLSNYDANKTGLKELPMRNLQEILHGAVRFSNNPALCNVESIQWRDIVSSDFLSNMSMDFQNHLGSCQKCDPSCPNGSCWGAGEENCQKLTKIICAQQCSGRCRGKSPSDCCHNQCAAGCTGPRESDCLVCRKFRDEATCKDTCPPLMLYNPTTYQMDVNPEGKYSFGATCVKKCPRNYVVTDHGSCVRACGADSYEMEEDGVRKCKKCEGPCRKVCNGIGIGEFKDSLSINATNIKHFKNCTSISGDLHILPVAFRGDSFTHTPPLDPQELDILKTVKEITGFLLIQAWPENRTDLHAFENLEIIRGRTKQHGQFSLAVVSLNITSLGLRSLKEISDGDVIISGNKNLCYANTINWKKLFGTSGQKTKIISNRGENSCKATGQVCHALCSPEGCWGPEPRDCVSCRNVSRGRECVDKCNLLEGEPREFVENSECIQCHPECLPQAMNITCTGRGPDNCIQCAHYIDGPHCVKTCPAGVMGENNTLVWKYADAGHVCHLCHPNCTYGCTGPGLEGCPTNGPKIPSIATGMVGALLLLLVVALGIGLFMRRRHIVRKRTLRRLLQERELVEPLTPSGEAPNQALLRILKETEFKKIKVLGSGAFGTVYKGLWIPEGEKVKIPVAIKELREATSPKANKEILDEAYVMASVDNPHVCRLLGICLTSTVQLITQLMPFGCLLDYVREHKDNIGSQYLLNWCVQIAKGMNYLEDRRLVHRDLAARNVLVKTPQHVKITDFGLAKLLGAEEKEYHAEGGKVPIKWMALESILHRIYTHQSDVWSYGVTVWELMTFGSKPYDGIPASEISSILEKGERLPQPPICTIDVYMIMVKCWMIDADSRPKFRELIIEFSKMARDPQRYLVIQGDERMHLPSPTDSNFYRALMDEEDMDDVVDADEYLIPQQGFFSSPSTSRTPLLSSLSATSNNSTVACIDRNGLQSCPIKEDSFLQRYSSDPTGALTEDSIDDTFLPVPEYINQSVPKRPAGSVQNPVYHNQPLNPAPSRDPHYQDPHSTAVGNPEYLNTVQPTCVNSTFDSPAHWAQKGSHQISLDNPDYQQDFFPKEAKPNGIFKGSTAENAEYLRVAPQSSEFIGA
Experimental: Inhibitory effects in vitro of the compounds provided in the present invention on EGFR kinase activity was tested as follows:
10 concentration gradients, from 5.1×10^−11 mol/L to 1.0×10^−6 mol/L, were set for all of the compounds to be tested.
10 μL of kinase reaction system comprised 2.5 μL of compound solution, 5 μL of Kinase/peptide mixture, and 2.5 μL of ATP solution. 5 μL of phosphopeptide solution was used in place of kinase/peptide mixture as 100% phosphorylation control. […] After thoroughly mixing the solution within the plate, the plate was incubated at room temperature for 1.5 hours. 5 μL of DevelopmentSolution was added into each well, and then the plate was incubated at room temperature for another 1 hour, and non-phosphorylated peptide was cleaved within this period. Finally, the reaction was quenched by adding 5 μL of Stop Reagent. The Plate was measured with EnVision Multilabel Reader (Perkin Elmer). Experimental data were calculated by using GraphPad Prism version 4.0. Each experiment was repeated more than three times.

FLT3 = FLT3 (Homo sapiens (Human), UniProt P36888); test: FLT3 kinase activity assay (Caliper); type: biochemical; conditions: read-out: Inhibitory activity on kinase (IC50, nM) FLT3
FLT3, sequence (P36888 27-993): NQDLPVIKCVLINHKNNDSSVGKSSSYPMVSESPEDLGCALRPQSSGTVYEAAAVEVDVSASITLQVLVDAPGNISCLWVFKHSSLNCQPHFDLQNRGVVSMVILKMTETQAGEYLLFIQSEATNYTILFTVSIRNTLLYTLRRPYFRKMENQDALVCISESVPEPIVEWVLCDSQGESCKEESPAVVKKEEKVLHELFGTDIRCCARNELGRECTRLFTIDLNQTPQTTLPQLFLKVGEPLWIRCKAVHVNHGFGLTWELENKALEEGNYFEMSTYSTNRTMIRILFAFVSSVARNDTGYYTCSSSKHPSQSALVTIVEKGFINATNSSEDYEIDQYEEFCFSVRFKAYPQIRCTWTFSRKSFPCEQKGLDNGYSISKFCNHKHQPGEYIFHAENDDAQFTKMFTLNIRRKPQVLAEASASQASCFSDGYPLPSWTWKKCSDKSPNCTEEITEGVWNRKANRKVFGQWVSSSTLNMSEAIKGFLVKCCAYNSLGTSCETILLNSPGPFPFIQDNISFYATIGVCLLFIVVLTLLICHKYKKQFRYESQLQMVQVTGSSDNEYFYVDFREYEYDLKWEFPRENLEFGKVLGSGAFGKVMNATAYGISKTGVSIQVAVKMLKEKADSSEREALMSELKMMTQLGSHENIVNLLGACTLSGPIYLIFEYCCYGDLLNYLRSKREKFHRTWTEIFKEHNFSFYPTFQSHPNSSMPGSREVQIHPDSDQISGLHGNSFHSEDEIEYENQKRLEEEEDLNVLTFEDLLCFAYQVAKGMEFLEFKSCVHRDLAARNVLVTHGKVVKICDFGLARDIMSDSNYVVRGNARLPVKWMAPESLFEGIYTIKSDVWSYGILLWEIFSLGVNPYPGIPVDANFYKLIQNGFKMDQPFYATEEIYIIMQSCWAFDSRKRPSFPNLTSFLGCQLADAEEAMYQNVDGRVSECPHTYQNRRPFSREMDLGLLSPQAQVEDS
Experimental: Preparation of 1× kinase matrix buffer and stop buffer.
Preparation of compound solution. The compound was dissolved in 100% DMSO to a concentration, which was 50 times of the final highest inhibiting-concentration. 100 μL of the compound solution as said above was transferred into wells of 96-well plate. The above compound solution was sequentially diluted to the final desired concentration. In two blank wells of same 96-well plate, 100 μL of 100% DMSO was added as no-compound and no-kinase control, and this plate was used as the original plate.
Preparation of intermediate plate. 10 μL of compound solution was transferred from the original plate to another 96-well plate as the intermediate plate; 90 μL of 1× kinase buffer was added into each well of the intermediate plate, and the intermediate plate was shaken for 10 min.
Preparation of assay plate. 5 μL of solution from each well of intermediate plate was added into a 384-well plate, and repeated controls were set.
Kinase reaction. 2.5× kinase solution and 2.5× peptide solution were prepared. 2.5× kinase solution was transferred into assay plate. Assay plate comprised 5 μL of the compound solution in 10% DMSO. 10 μL of 2.5× kinase solution was added in each well of 384-well assay plate. […] 2.5× peptide solution was added into each well. After incubated at 28° C. for an appropriate time, 25 μL of stop buffer was added to quench the reaction. Experimental data were collected in Caliper. Curve was fitted.

BRAF, sequence (P15056 whole entry, species assumed): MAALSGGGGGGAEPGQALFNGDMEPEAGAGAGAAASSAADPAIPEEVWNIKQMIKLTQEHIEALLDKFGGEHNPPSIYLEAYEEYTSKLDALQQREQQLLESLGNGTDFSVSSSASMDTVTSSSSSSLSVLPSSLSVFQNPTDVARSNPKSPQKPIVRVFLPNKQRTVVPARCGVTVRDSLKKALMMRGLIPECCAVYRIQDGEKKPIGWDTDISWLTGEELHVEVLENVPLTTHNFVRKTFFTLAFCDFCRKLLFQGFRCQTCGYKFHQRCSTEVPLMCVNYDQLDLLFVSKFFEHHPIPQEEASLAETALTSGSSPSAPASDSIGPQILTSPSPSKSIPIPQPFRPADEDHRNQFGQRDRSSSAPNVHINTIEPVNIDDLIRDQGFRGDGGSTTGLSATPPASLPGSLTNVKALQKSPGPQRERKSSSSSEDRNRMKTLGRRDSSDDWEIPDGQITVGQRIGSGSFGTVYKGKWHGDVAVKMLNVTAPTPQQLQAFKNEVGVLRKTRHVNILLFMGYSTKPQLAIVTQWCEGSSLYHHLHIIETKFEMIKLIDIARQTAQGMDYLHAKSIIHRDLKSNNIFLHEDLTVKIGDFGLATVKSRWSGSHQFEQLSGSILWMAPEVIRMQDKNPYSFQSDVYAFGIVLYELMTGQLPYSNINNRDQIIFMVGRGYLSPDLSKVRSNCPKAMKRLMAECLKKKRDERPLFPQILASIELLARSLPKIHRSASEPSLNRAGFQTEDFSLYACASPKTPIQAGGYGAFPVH

inhibition at 1 µM (BRAF) [%] | inhibition at 10 µM (BRAF) [%] | IC50 [1] [µM] | IC50 [2] [µM] | IC50 (wild-type EGFR) [nM] | IC50 (FLT3) [nM] | Compound
-7 | 21 | 0.002 | 0.043 | 1.47 | 322 | C=CC(=O)Nc1cccc(-n2c(=O)cnc3cnc(Nc4ccc(N5CCN(C)CC5)cc4)nc32)c1 [Compound 020, N-(3-(2-(4-(4-methyl-1-piperazinyl)-phenylamino)-7-oxo-8(7H)-pteridin-yl)phenyl) acrylamide]
0.35 | -5.2 | 0.004 | 0.038 | 3.67 | 1170 | C=CC(=O)Nc1cccc(-n2c(=O)cnc3cnc(Nc4ccc(N5CCN(C)CC5)cc4OC)nc32)c1 [Compound 032, N-(3-(2-(2-methoxy-4-(4-methyl-1-piperazinyl)-phenylamino)-7-oxo-8(7H)-pteridin-yl)phenyl)acrylamide]
